{"source": "patent US20250044299A1", "about": "“PROTEIN STABILITY ASSAY” (Medicines Discovery Catapult Limited, priority 2021, published 2025)", "key": {"p38α MAPK [1]": {"target": "T1, p38α MAPK (Homo sapiens, UniProt Q16539)", "assay": "Protein stability assay, HeLa p38α HiBiT cell lysate, HiBiT endpoint compared with AlphaLISA endpoint (Example 7)", "assay_type": "binding", "set-up": "lysate of HeLa p38α MAPK-linked HiBiT® endogenously tagged cells; endogenous in cells; host or cells: HeLa p38α HiBiT (genome-edited, endogenously tagged)", "quoted_text": "Hela cells expressing the p38α target protein as a C-terminal fusion with a small peptide that includes the Promega HiBit® amino acid sequence were used as the starting material for lysate generation.\nA solution containing 1:100 LgBiT® Protein and 1:100 Nano-Glo HiBiT® Lytic Substrate in PBS was created in a suitable volume. […] After incubation the plate was read on a luminescence detecting plate reader (3600 gain, 470-480 emission) to determine well signals."}, "p38α MAPK [2]": {"target": "T1, p38α MAPK", "assay": "Whole cell protein stability assay, AlphaLISA endpoint, intact HEK293T cells, EA titration (Example 4)", "assay_type": "cell-based", "set-up": "endogenous in cells; host or cells: HEK293T", "conditions": "10 μM compound as printed, vs DMSO only", "method": "HEK293T cells were grown in media (RPMI (Gibco 11835-063), 10% FCS (Gibco F7524) 1% Glutamax (Gibco 35050-061)) to approximately 85% confluence in a flask before harvesting from the surface using 3 ml Tryple Select (Gibco 12563011), washing cell pellet once in DPBS (Gibco 14190-094) and resuspending in media. Cells were counted and diluted in media to a density of 1×10^7 cell/ml.\nTo run the protein stability assay 5 μl of cells at a density of 1×10^7 cell/ml was added to each well of a 384-well White ProxiPlate ([…]) or an equivalent volume of DMSO dosed using the Labcyte ECHO. The contents of the plate were settled by a short pulse spin, sealed with a TopSeal-A Plus plate seal (Perkin Elmer 6050185) and the compound/lysate mixes incubated at ambient temperature for 30 minutes to 1 hour to allow potential target engagement by compound to occur. While incubating, fresh 100% EA (Ethanol (10437341) and Acetic Acid (10365020), all from Fisher Scientific in a ratio of 100:0.1) denaturant was made in a glass bottle ready for use. 100% EA was used to produce a titration curve of denaturant. […]\nThe dilution series to be added was made up as a 2× stock so that when 5 μl of denaturant was added to 5 μl lysate the final volume was 10 μl. […] After incubation the plate was read on a fluorescence detecting plate reader (Excitation 680 nm, Emission 615 nm) to determine well signals."}, "p38α": {"target": "T2, p38α (Homo sapiens, UniProt Q16539)", "T2 construct": "endogenous in cells; host or cells: HEK293T", "T2 sequence (Q16539 whole entry)": "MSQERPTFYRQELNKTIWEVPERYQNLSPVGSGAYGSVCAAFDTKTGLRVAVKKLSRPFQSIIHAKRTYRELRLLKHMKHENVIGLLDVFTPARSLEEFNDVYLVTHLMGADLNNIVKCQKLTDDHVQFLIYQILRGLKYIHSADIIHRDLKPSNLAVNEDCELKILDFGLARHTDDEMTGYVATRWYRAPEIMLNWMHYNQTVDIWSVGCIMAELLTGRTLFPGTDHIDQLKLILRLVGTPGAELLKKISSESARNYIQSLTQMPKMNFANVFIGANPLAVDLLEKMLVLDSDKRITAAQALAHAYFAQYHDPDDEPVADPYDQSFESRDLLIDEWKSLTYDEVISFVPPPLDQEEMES", "assay": "Chemical protein stability assay, single-well per test compound format, AlphaLISA, HEK293T cell lysate (Example 9)", "assay_type": "binding", "conditions": "10 μM compound, 384-well single wells", "method": "For signal detection an antibody detection mix was made up no more than 20 minutes prior to use."}, "p38α MAPK [3]": {"target": "T1, p38α MAPK", "assay": "Protein stability assay, AlphaLISA endpoint, HEK293T cell lysate, AEA titration (Example 1)", "assay_type": "binding", "set-up": "endogenous in cells; host or cells: HEK293T", "conditions": "compound at 10 or 100 μM, vs DMSO only", "method": "Lysate from HEK293T cells grown in continuous culture at 5% CO2/37° C. in full growth media (RPMI (Gibco 11835-063), 10% FCS (Gibco F7524) 1% Glutamax (Gibco 35050-061)) was produced by growing cells in flasks to 85% confluence, removing from the surface using 3 ml Tryple Select (Gibco 12563011), centrifuging (1000 rpm for 4 minutes) to pellet, washing cell pellet two times in DPBS (Gibco 14190-094), resuspending in 1 ml of DPBS (Gibco 14190-094) containing 1× HALT Protease and Phosphatase inhibitor cocktail (Thermo Scientific 78440) per flask and lysing by three cycles of a liquid nitrogen freeze followed by thawing at room temperature. […]\nTo run the protein stability assay, an aliquot of HEK293T cell lysate at 4 μg/μl was thawed at room temperature and 2 μl added to each well of a 384-well White ProxiPlate (Perkin Elmer 6008280) containing […], 100 μM AMG-548 (Bio-Techne 3920/10) or an equivalent volume of DMSO dosed using the Labcyte ECHO. […] While incubating, fresh 100% AEA (Acetone (11443733), Ethanol (10437341) and Acetic Acid (10365020), all from Fisher Scientific in a ratio of 50:50:0.1) denaturant was made in a glass bottle ready for use. An aliquot of 100% AEA was diluted to 50% in DPBS (Gibco 14190-094) ready to produce titration curves of denaturant. […]"}}}
{"compound": "Cn1c(NC[C@@H](N)Cc2ccccc2)nc(-c2ccncc2)c(-c2ccc3ccccc3c2)c1=O", "note": "[AMG-548]", "values": [{"measurement": "stabilisation of p38α MAPK target protein (shift of denaturant titration curves)", "setting": "p38α MAPK [1]; 100 μM compound, AEA and EA titration, HiBiT or AlphaLISA endpoints, vs DMSO only", "value": "clear shift between the titration curves"}, {"measurement": "effect of compound on protein unfolding, concentration response curves", "setting": "p38α MAPK [1]; HiBiT endpoint, fixed dose of denaturant", "value": "clear dose dependent effect"}, {"measurement": "stabilisation of p38α MAPK protein (shift in protein denaturation curves)", "setting": "p38α MAPK [2]", "value": "stabilisation of p38α MAPK protein compared to DMSO only treatment"}, {"measurement": "single-well signal vs minimum signal (22% EA, DMSO vehicle)", "setting": "p38α", "value": "higher Maximum effect signal"}, {"measurement": "stabilisation of p38α MAPK protein (shift in protein denaturation curves)", "setting": "p38α MAPK [3]", "value": "stabilisation of p38α MAPK protein in a dose dependent manner"}]}
